Measured values: ChEMBL document CHEMBL1201862, “PubChem BioAssay data set” (2004)
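Dose response: 5 concentrations. Exposure: 48 h. Format: 96-well plates. Endpoint: linear interpolation; highest concentration if not reached. GI50 = concentration required for 50% inhibition of growth.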 Calls of active or inactive are those of the source. No stated cut-off is given here; in the data, active = GI50 up to about 1.1 µM and inactive = higher. Where a SMILES comes first, the peptide text is derived from it. The star is where a group is joined. Boc = CC(C)(C)OC(=O)*

Tests used:
Assay in all cases: NCI-60 cell line screen, 48 h
[1] = tested on: A498
[2] = tested on: SF-268
[3] = tested on: BT-549
[4] = tested on: A549
[5] = tested on: K562
[6] = tested on: SR
[7] = tested on: SK-MEL-5
[8] = tested on: M14
[9] = tested on: NCI-H23
[10] = tested on: ACHN
[11] = tested on: SK-OV-3
[12] = tested on: NCI-H460
[13] = tested on: RPMI-8226
[14] = tested on: KM12
[15] = tested on: MOLT-4
[16] = tested on: SN12C
[17] = tested on: IGROV-1
[18] = tested on: U-251
[19] = tested on: OVCAR-3
[20] = tested on: UACC-62

Row | Compound | GI50 [1] | GI50 [2] | GI50 [3] | GI50 [4] | GI50 [5] | GI50 [6] | GI50 [7] | GI50 [8] | GI50 [9] | GI50 [10] | GI50 [11] | GI50 [12] | GI50 [13] | GI50 [14] | GI50 [15] | GI50 [16] | GI50 [17] | GI50 [18] | GI50 [19] | GI50 [20]
1 | OC(NN=C1CCCC1)(C(F)(F)Cl)C(F)(F)Cl | > 10 µM (inactive) | > 10 µM (inactive) | > 10 µM (inactive) | > 10 µM (inactive) | > 10 µM (inactive) | > 10 µM (inactive) | > 10 µM (inactive) | > 10 µM (inactive) | > 10 µM (inactive) | > 10 µM (inactive) | > 10 µM (inactive) | > 10 µM (inactive) | > 10 µM (inactive) | > 10 µM (inactive) | > 10 µM (inactive) | > 10 µM (inactive) | > 10 µM (inactive) | > 10 µM (inactive) | > 10 µM (inactive) | > 10 µM (inactive)
2 | CCCCCCCCCCNC(=O)CCC(NC(=O)c1ccc(N(C)Cc2cnc3nc(N)nc(N)c3n2)cc1)C(=O)NCCCCCCCCCC (stereo not given) | 30.5 µM (inactive) | 9.62 µM (inactive) | 9.27 µM (inactive) | 28.6 µM (inactive) | 0.698 µM (active) | 2.94 µM (inactive) | 3.9 µM (inactive) | 8.97 µM (inactive) | 14.7 µM (inactive) | 44.7 µM (inactive) | 27.8 µM (inactive) | 4.06 µM (inactive) | 10 µM (inactive) | 4.89 µM (inactive) | 2.99 µM (inactive) | 8.07 µM (inactive) | 6.04 µM (inactive) | 4.2 µM (inactive) | 10 µM (inactive) | 18.9 µM (inactive)
3 | COc1cc(CC2CCc3nc(N)nc(N)c3C2)cc(OC)c1OC (stereo not given) | 20.7 µM (inactive) | 0.174 µM (active) | 9.55 µM (inactive) | 0.0927 µM (active) | 5.3 µM (inactive) | 0.236 µM (active) | 0.0834 µM (active) | 0.195 µM (active) | 0.698 µM (active) | 0.163 µM (active) | 27.6 µM (inactive) | 0.0571 µM (active) | 5.83 µM (inactive) | 1.18 µM (inactive) | 1.01 µM (active) | 31.1 µM (inactive) | 0.131 µM (active) | > 35.2 µM (inactive) | 8.85 µM (inactive) | 0.145 µM (active)
4 | CC(C)(C)OC(=O)NCC(=O)NCC(=O)NCC(=O)NCC(=O)O (Boc-GGGG-OH) | > 100 µM (inactive) | > 100 µM (inactive) | > 100 µM (inactive) | > 100 µM (inactive) | > 100 µM (inactive) | > 100 µM (inactive) | > 100 µM (inactive) | > 100 µM (inactive) | > 100 µM (inactive) | > 100 µM (inactive) | > 100 µM (inactive) | > 100 µM (inactive) | > 100 µM (inactive) | > 100 µM (inactive) | > 100 µM (inactive) | > 100 µM (inactive) | > 100 µM (inactive) | > 100 µM (inactive) | > 100 µM (inactive) | > 100 µM (inactive)
